Measurements reported in patent US8895717B2, “Delivery of siRNA by neutral lipid compositions” (The Board of Regents of the University of Texas System, priority 2005, dated 2014).
d = 2'-deoxy (DNA); r = 2'-OH (RNA)

Key:
FAK = FAK down-regulation by siRNA in vitro, Western blot; format: cell-based, human; settings: for suppression of FAK expression: SKOV3, 72 hours of transfection
Method: siRNAs were synthesized and then purified using high-performance liquid chromatgraphy (Qiagen-Xeragon, Germantown, Md.). FAK siRNA sense: r(CCACCUGGGCCAGUAUUAU)d(TT) (SEQ ID NO:7); antisense: r(AUAAUACUGGCCCAGGUGG)d(TT) (SEQ ID NO:8) and control siRNA sense: r(UUUUCCGAACGUGUCACGU)dTT; (SEQ ID NO:9) antisense: r(ACGUGACACGUUCGGAGAA)dTT (SEQ ID NO:10) bearing no sequence homology with any known human mRNA sequences were dissolved in buffer (100 mmol/L potassium acetate, 30 mmol/L HEPES potassium hydroxide, 2 mmol/L magnesium acetate, pH 7.4) to a final concentration of […], heated to 90° C. for 60 seconds, incubated at 37° C. for 60 minutes, and stored at −20° C. until future use.
Cells were lysed in modified RIPA buffer (50 mM Tris, 150 mM NaCl, 1% triton, 0.5% deoxycholate plus 25 µg/ml leupeptin, 10 µg/ml aprotinin, 2 mM EDTA, and 1 mM sodium orthovanadate (Sigma Chemical Co, St. Louis, Mo.) as previously described (Sood et al., 2004; Sood et al., 2002). A sample was removed from culture dishes by cell scraping and centrifuged at 12,500 rpm for 30 min. The […] protein concentration of the supernatant was determined using a bicinchoninic acid protein assay reagent kit (Pierce, Rockford, Ill.), and whole cell lysates were analyzed by 7.5% SDS-PAGE. Samples were then transferred to nitrocellulose membrane by semi-dry transfer (BioRad Laboratories, Hercules, Calif.). Membranes were blocked with 5% nonfat milk, and incubated with 0.25 μg/mL anti-FAK antibody (Biosource, International Camarillo, Calif.) for 1 h at room temperature. Antibody was detected with 0.167 μg/mL HRP-conjugated anti-mouse secondary antibody (The Jackson Laboratory, Bar Harbor, Me.) and developed with an enhanced chemiluminescence detection kit (Pierce). Equal loading was confirmed by detection of β-actin (0.1 μg/ml, anti-β-actin antibody, Sigma Chemical). Densitometric analysis was performed using the Scion Imaging software (Scion Corporation, Frederick, Md.).
Next, the inventors sought to examine whether FAK silencing using siRNA will sensitize ovarian cancer cells to docetaxel.

caspase-3 = assay: Caspase-3 activity in ovarian cancer cells (DEVD-AFC); format: cell-based, human; settings: taxane-sensitive and taxane-resistant cell lines
Method: Ovarian cancer cells (1×10^6) in culture (six-well plates) were treated with or without docetaxel at the cell line specific IC50 or IC90 concentration for 24 hours. After washing with PBS, cells were lysed in 50 μL of cell lysis buffer provided. Caspase-3, caspase-8, and caspase-9 activities were measured with the appropriate apoptosis detection kit (BD Biosciences/Clontech, Palo Alto, Calif.), using substrate DEVD-AFC for caspase-3, IETD-AFC for caspase-8, and LEHD-AMC for caspase-9.

HeyA8 cells = assay: In vivo therapy with DOPC-FAK siRNA, HeyA8 model; design: species or system nude mice; settings: for Incidence (%) / No. Nodules: siRNA in DOPC twice weekly, docetaxel 50 μg weekly
Method: siRNA for in vivo delivery was incorporated into the phospholipid 1,2-dioleoyl-sn-glycero-3-phosphatidylcholine (DOPC). DOPC and siRNA were mixed in the presence of excess tertiary-butanol at a ratio of […], as previously described (Landen et al., 2005). Tween-20 was added to the mixture at a ratio of 1:19. The mixture was vortexed, frozen in an acetone/dry ice bath, and lyophilized. Before in vivo administration, this preparation was hydrated with normal (0.9%) saline at a concentration of 15 μg/ml to achieve the desired dose of 150-200 μl per injection. To estimate the quantity of siRNA not taken up by liposomes free siRNA was separated from liposomes by using filter units with a 30,000 nominal molecular weight limit (Millipore Corp, Billerica, Mass.). The liposomal suspension was added to the filters and centrifuged at 5,000 g for 40 min at room temperature. Fractions were collected, the material trapped in the filter was reconstituted with 0.9% saline, and the amount of siRNA in the collected fraction and eluent were measured by spectrophotometry.
To produce tumors, SKOV3ip1, Hey A8-MDR cells (1×10^6 cells/0.2 ml of HBSS) and Hey A8 cells (2.5×10^5 cells/0.2 ml of HBSS) were injected interperitoneally (i.p.) into the mice. For in vivo injections, cells were trypsinized and centrifuged at 1000 rpm for 7 minutes at 4° C., washed twice with PBS and reconstituted in serum-free Hank's balanced salt solution (HBSS, Life Technologies, Carlsbad, Calif.). Only single-cell suspensions with >95% viability, as determined by trypan blue exclusion, were used for the in vivo injections. Mice (n=10 per group) were monitored for adverse effects of therapy and were sacrificed on day 35 (SKOV3ip1) or day 28 (HeyA8 or HeyA8-MDR) or when any of the mice began to appear moribund. Mouse weight, tumor weight, and tumor distribution were recorded. Tissue specimens were snap frozen for lysate preparation, fixed in formalin for paraffin embedding or frozen on OCT compound (Miles, Inc., Elkhart, Ind.) for frozen slide preparation.
Based on the results of preliminary dose-response studies, a series of three separate therapy studies were initiated using the optimal FAK siRNA dosage. Tumor cells were injected i.p. and 7 days later, the mice were randomly assigned to five treatment groups: empty liposome twice weekly, non-specific control […] siRNA (3 μg) twice weekly, control FAK siRNA (3 μg) twice weekly in combination with 50 μg docetaxel weekly, FAK siRNA twice weekly and FAK siRNA (3 μg) twice weekly in addition to 50 μg docetaxel weekly.
The SKOV3ip1 or HeyA8 ovarian cancer cells were implanted into the peritoneal cavity of athymic nude mice for experiments designed to test the therapeutic potential of FAK-targeted inhibition of gene expression. Seven days later, therapy was started according to the following five treatment groups: 1) empty liposomes; 2) non-specific siRNA-DOPC; 3) docetaxel plus non-specific siRNA-DOPC; 4) FAK targeted siRNA-DOPC; and 5) docetaxel plus FAK-targeted siRNA-DOPC. The animals were sacrificed after 4 weeks of therapy and a necropsy was performed. The data for these therapies' effects on SKOV3ip1 and HeyA8 are summarized in FIGS. 6A and 6B, respectively. […] Treatment with FAK siRNA alone or docetaxel plus control siRNA were effective in inhibiting tumor growth (54 to 74%) in both cell lines compared with control (FIG. 13).

Substance: FAK siRNA: sense r(CCACCUGGGCCAGUAUUAU)d(TT), antisense r(AUAAUACUGGCCCAGGUGG)d(TT); for in vivo delivery incorporated into DOPC (sense CCACCUGGGCCAGUAUUAUTT; antisense AUAAUACUGGCCCAGGUGGTT; sugars from the 5' end r19 d2, backbone not given here)
- suppression of FAK expression (FAK): 90%
- suppression of FAK expression (FAK; listed as FAK-specific siRNA): > 90%
- FAK expression (FAK; after 24 hours of treatment): detectable decrease in FAK expression
- caspase-3 activity, siRNA alone (caspase-3): did not potentiate the activity of caspase-3
- Incidence (%) (HeyA8 cells): 70%
- No. Nodules (HeyA8 cells): 1.7

Substance: control siRNA: sense r(UUUUCCGAACGUGUCACGU)dTT, antisense r(ACGUGACACGUUCGGAGAA)dTT, no homology with human mRNA; in vivo in DOPC (sense UUUUCCGAACGUGUCACGUTT; antisense ACGUGACACGUUCGGAGAATT; sugars from the 5' end r19 d2, backbone not given here)
- FAK expression compared with untreated cells (FAK; SKOV3): did not significantly affect FAK expression
- caspase-3 activity, siRNA alone (caspase-3): did not potentiate the activity of caspase-3
- reduction of tumors compared with empty liposomes (HeyA8 cells): about 39%
- Incidence (%) (HeyA8 cells): 100%
- No. Nodules (HeyA8 cells): 4.0
